What was measured:
[1] = system: cleaved caspase-3 in SK-MEL-28 melanoma cells; experiment: Western blot for cleaved caspase-3; format: cell-based, human; conditions: SK-MEL-28, 100 μM
Method: Western blot analysis of SK-MEL-28 melanoma cells treated with 100 μM of 6-PN, 8-PN, SAHA or TSA. EtOH and DMSO were applied as controls.
The following antibodies were used: Anti-Vinculin and Anti-Actin (1:5000, Sigma-Aldrich), Anti-Acetyl-Histon H3 (1:5000, Millipore, Billerica, USA), Anti-Caspase-3 (1:1000), Anti-AKT, Anti-pAKT, Anti-ERK, Anti-pERK, […], Anti-p70S6 Kinase, and Anti-pS6 protein (1:1000), all from Cell Signaling, Frankfurt, Germany), Anti-LC3 (1:5000, Sigma-Aldrich).
To further analyze the type of cell death induced by 6-PN and 8-PN, western blot analyses of SK-MEL-28 melanoma cells were performed 1, 2, 4, 12 and 24 hours after the treatment with 100 μM 6-PN and 8-PN. […] Upon PN treatment an inconsistent expression of oncogenic AKT and phospho-AKT (pAKT) was detected. […] Thus, there was an obvious discrepancy between the expression of pAKT and pS6P. Therefore it was first also looked for the expression of P70S6 kinase and its phosphorylated form. […] Therefore it was next asked whether the S6P could be phosphorylated by a different mechanism. In this respect, activated ERK can phosphorylate the p90 ribosomal S6 kinase (pP90). pP90 also phosphorylates the S6P (in addition to the P70S6 kinase). Since the pP70S6 kinase was absent in the used cells (SK-MEL-28 and BLM), it was hypothesized that the phosphorylation of the S6P was conducted via the pERK/pP90 pathway, independent from the P70S6 signalling. This hypothesis was supported by the parallel down-regulation of the bands for pP90 (Thr359/Ser363) and pS6P 12 hours after the treatment with 6-PN, and the reappearance of both bands after 24 hours (FIG. 8). […] The western blot experiments were repeated with BLM cells under the same treatment conditions and yielded similar results (not shown).

[2] = system: MCF-7 breast cancer cells; experiment: MUH proliferation assay, MCF-7; format: cell-based; conditions: MCF-7, rising concentrations 0.1 μM to 100 μM, 48 hours
Method: FIG. 6: 6-PN and 8-PN inhibit the growth of MCF-7 and HT-29. (A, B) MUH proliferation assay of HT-29 colon cancer cells and MCF-7 breast cancel cells treated with increasing concentrations of 6-PN and 8-PN (0.1 μM to 100 μM) for 48 hours. Shown are the mean±S.A.; the experiments were performed in quadruplicates.
The cells were seeded in triplicates in 96-well plates at a density of 2,500 cells per well in 50 μl medium (5×10^4 cells per milliliter). After 24 hours, the medium was replaced by medium containing 6-PN, 8-PN (dissolved in DMSO), TSA (dissolved in EtOH) or SAHA (dissolved in DMSO) at the concentrations to be tested with or without the addition of the necrosis inhibitor IM-54 at 5 μM (Calbiochem, Darmstadt, Germany). Cells treated with culture medium without or with DMSO served as controls. The assay was started following an incubation of 24 hours. The medium was discarded, each well was washed two times with PBS (without Ca^++ and Mg^++) and 100 μl of a solution containing […] of 4-methyl umbellipheryl heptanoate per ml PBS was added. Plates were incubated at 37° C. for 1 hour and measured in a Fluoroskan II (Lab Systems, Helsinki, Finland) with a […]. The intensity of fluorescence indicates the number of viable cells in the wells. […]

[3] = system: SK-MEL-28 melanoma cells; experiment: FACS cell cycle analysis (PI), SK-MEL-28; format: cell-based, human; conditions: SK-MEL-28, 100 μM, 48 hours
Method: (A) Cell cycle FACS analyses of PI stained BLM and SK-MEL-28 melanoma cells. 100 μM of 8-PN-induced a G2 arrest in both cells. (B) FACS analyses of BLM and SK-MEL-28 melanoma cells treated with 100 μM 6-PN or 8-PN and stained for annexin V/PI; staurosporin was used as control for apoptosis induction and DMSO as vehicle control. […] (C) BLM and SK-MEL-28 melanoma cells were treated with 100 μM of PNs; TSA, SAHA and EMSO were used as controls.
To further analyze the possibility of apoptosis induction, an extensive apoptosis assay was performed on SK-MEL-28 melanoma cells 4 hours after treatment with 100 μM 6-PN or 8-PN (FIG. 9). […] This was verified by FACS cell cycle analyses to screen for a possible increase of the sub-G1 fraction of cells (apoptotic cells) or for the induction of a G2 arrest (inhibition of proliferation). […] To further differentiate between the induction of apoptosis and/or necrosis an PI/Annexin V staining of SK-MEL-28 and BLM cells was performed 4 hours and 24 hours after the treatment with 6-PN or 8-PN; 10 μM staurosporin (6 hours treatment) was used as positive control for the induction of apoptosis; DMSO treatment was used as vehicle control. The cells were then analyzed by FACS.

[4] = system: foreskin melanocytes (HEM1); experiment: MUH proliferation assay, melanocytes; format: cell-based; conditions: 6-PN, 8-PN at higher concentrations (0.1 μM to 100 μM tested); TSA, SAHA 100 μM
Method: (§1) FIG. 5: real time cell monitoring of BLM and SK-MEL-28 melanoma cells treated with 6-PN and 8-PN. (A) BML and SK-MEL-28 cells were treated 24 hours after seeding with different concentrations of 6-PN and 8-PN (20 μM, 50 μM and 100 μM) over a 104 hour time period. The cellular impedance was measured over the entire observation time using the xCELLigence™ SP system and is depicted by the cell index (CI). All CI-values were normalized shortly before the treatment started. […] As a positive control, Triton X-100 0.1% was used to induce cell death. Shown are the mean±SD of three independent experiments, each performed in triplicates (B, C). […] Shown are the mean±SD; the experiments were performed in quadruplicates. (D) The MUH proliferation assay was repeated unter the same treatment conditions on primary human fibroblasts (FF868) and melanocytes (HEM1).
(§2) The cells were seeded in triplicates in 96-well plates at a density of 2,500 cells per well in 50 μl medium (5×10^4 cells per milliliter). After 24 hours, the medium was replaced by medium containing 6-PN, 8-PN (dissolved in DMSO), TSA (dissolved in EtOH) or SAHA (dissolved in DMSO) at the concentrations to be tested with or without the addition of the necrosis inhibitor IM-54 at 5 μM (Calbiochem, Darmstadt, Germany). Cells treated with culture medium without or with DMSO served as controls. The assay was started following an incubation of 24 hours. […] Plates were incubated at 37° C. for 1 hour and measured in a Fluoroskan II (Lab Systems, Helsinki, Finland) with a […]. The intensity of fluorescence indicates the number of viable cells in the wells.
(§3) Next it was asked whether the PNs also influence the proliferation of benign cells. To this end, human fibroblasts (FF) and foreskin melanocytes (HEM1) were treated with the same concentrations of 6-PN and 8-PN, and proliferation was assessed using the proliferation assay as described above.

[5] = system: primary human fibroblasts (FF868); experiment: MUH proliferation assay, fibroblasts; format: cell-based; conditions: 6-PN, 8-PN 0.1 μM to 100 μM; TSA, SAHA 100 μM
Method: as §1, §2, §3

With `CC(C)=CCc1c(O)cc(O)c2c1OC(c1ccc(O)cc1)CC2=O` (stereo not drawn) [8-PN, 5,7-Dihydroxy-2-(4-hydroxy-phenyl)-8-(3-methyl-but-2-enyl)-chroman-4-one] the “band for cleaved caspase-3” value [1] was “no additional band”, the cell proliferation [2] was “severe reduction” and the “sub-G1 fraction (apoptotic cells)” value [3] was “remained unaffected”. The “cells in the G2 phase” value ([3]; DMSO control 20.1%) was 49.8%, the melanocyte proliferation [4] was “markedly decreased” and the fibroblast proliferation [5] was “hardly affected”.
